pIC50: −log10 of the molar value. ≈ marks a conversion by molar mass, not a printed value. Read-outs that look alike come from different tables or passages of the source. One block for each molecule: values may come before it.
Experiments:
[1] = test system: S. aureus clinical isolates; assay: MIC by agar dilution, recent clinical isolates (UCSD Medical Center); format: cell-based, Staphylococcus aureus; conditions: MRSA (17)
[2] = test system: S. aureus clinical isolates; assay: as above; format: cell-based, Staphylococcus aureus; conditions: MSSA (14)
Description: Growth of all 14 isolates of MSSA was inhibited by Compound (9) at the lowest tested concentration (0.08 μg/ml) (See Table 6, below).

E. coli N [3] = assay: Inhibition of bacterial growth (IC50, OD600); format: cell-based
Description: Compounds of the invention were tested for their ability to inhibit the growth of β-lactam sensitive and resistant bacteria by contacting samples of such cells with various dilutions of the compositions, incubating the cells at 37° C. in the presence of these compositions and then measuring the number of viable cells present in each sample.
Two compounds of the invention were tested, Compound (9) and Compound (1l). Incubation of bacterial cells was performed for two time periods, 10 hours and 20 hours. Four E. coli strains were used for the test. These strains were all derived from the strain NovaBlue (NovaGen Inc., Madison, Wis.). E. coli N is a normal, β-lactam sensitive strain. E coli R(Tem1) is a β-lactam resistant strain with a β-lactamase gene on a plasmid. E. coli C(Tem4O-15) is a β-lactam resistant strain with a β-lactam inhibitor resistant β-lactamase gene, and E. coli C(Tem3 1-27) is β-lactam resistant strain with an alternative β-lactam inhibitor resistant β-lactamase gene.
The various E. coli strains were each treated with dilutions of the compounds of the invention. […] The number of viable cells at each time point was determined by measuring the OD600 of each cell sample.
After measuring the number of viable cells present, the IC50 for each sample was determined. […] In addition, both compounds were effective at inhibiting the growth of both antibiotic sensitive and resistant bacterial cells.

E. cloacae = assay: Susceptibility testing (MIC, modified NCCLS method); format: cell-based, Enterobacter cloacae; conditions: for MIC: Enterobacter cloacae
Description: (§1) The NCCLS (National Committee for Clinical Laboratory Standards) method to determine MIC's of antimicrobial compounds was modified for high-throughput screening. All stocks of tested compounds were prepared in either water or in dimethylsulfoxide (DMSO), depending on the solubility. […] Briefly 20 2-fold serial dilutions of testing compounds from the highest concentration were made in a 384-well microtiter plate. Each well was inoculated with testing bacteria in broth to a final concentration of approximately 1-1.5×10^6 cells/ml. Bacterial growth was determined by the increase of optical density at 600 nm using a microplate reader (Tecan SpectraFluor Plus).

K. pneumoniae = assay: as above; format: cell-based, Klebsiella pneumoniae; conditions: Klebsiella pneumoniae
Description: as §1

E. aerogenes = assay: as above; format: cell-based, Enterobacter aerogenes; conditions: for MIC: Klebsiella aerogenes
Description: as §1

E. coli/TEM-1 = assay: as above; format: cell-based, Escherichia coli; conditions: Escherichia coli
Description: as §1

E. coli N [4] = assay: as above; format: cell-based, Escherichia coli; conditions: Escherichia coli; E. coli (N); read-out: MIC
Description: as §1

P. aeruginosa = assay: as above; format: cell-based, Pseudomonas aeruginosa; conditions: Pseudomonas aeruginosa, read-out: MIC
Description: as §1

Staphylococcus aureus = assay: as above; format: cell-based; conditions: Staphylococcus aureus, read-out: MIC
Description: as §1

E. faecalis = assay: as above; format: cell-based, Enterococcus faecalis; conditions: Enterococcus faecalis, read-out: MIC
Description: as §1

MIC range [1]: 5 µg/mL (≈ 11 µM)
MIC50 ([1]; Staphylococcus aureus): > 5 µg/mL
MIC90 ([1]; Staphylococcus aureus): > 5 µg/mL
MIC range [2]: 0.08 to 0.6 µg/mL
MIC50 ([2]; Staphylococcus aureus): 0.16 µg/mL (≈ 0.352 µM)
MIC90 ([2]; Staphylococcus aureus): 0.3 µg/mL (≈ 0.66 µM)
Structure (SMILES): Cc1nnc(SCC2=C(C(=O)O)N3C(=O)[C@@H](NC(=O)Cn4cnnn4)[C@H]3SC2)s1 [Cefazolin, reference compound]

pIC50 (E. coli N [3]; Escherichia coli, 10 h, read-out: IC50 10 hours, Cell N, 10 hours, 37° C.): 5.01
pIC50 (E. coli N [3]; Escherichia coli, 20 h, read-out: IC50 20 hours, Cell N, 20 hours): 5.13
pIC50 (E. coli N [3]; read-out: IC50 10 hours, Cell N, 10 hours, 37° C.): 5.10
MIC range (E. cloacae; E. cloacae (1)): 31 µg/mL (≈ 88.7 µM)
MIC (E. cloacae; E. cloacae (1), read-out: GM* MIC (geometric mean)): 31 µg/mL (≈ 88.7 µM)
MIC (K. pneumoniae; K. pneumoniae (5), read-out: GM* MIC (geometric mean)): 27200 µg/mL (≈ 77800 µM)
MIC range (E. aerogenes; E. aerogenes (5)): 61 to 7813 µg/mL
MIC (E. aerogenes; E. aerogenes (5), read-out: GM* MIC (geometric mean)): 488 µg/mL (≈ 1400 µM)
Structure (SMILES): CC1(C)S[C@@H]2[C@H](NC(=O)[C@H](N)c3ccccc3)C(=O)N2[C@H]1C(=O)O [Ampicillin, ampicillin, reference compound]

Structure (SMILES): O=C(COc1ccc(O)cc1)NC1C(=O)N2C(C(=O)O)=C(COc3cc(Cl)ccc3Oc3ccc(Cl)cc3Cl)CS[C@H]12 (some centres unmarked) [Compound 40, 3-(2-(2,4-dichlorophenoxy)-5-chlorophenoxy)methyl-7-[2-(4-hydroxyphenoxy)acetamido]-3-cephem-4-carboxylic acid]
MIC (E. coli/TEM-1): 0.063 µg/mL (≈ 0.0966 µM)
MIC (E. coli N [4]): 0.5 µg/mL (≈ 0.767 µM)
MIC (E. cloacae; ATCC23355, E. cloacae ATCC 23355, read-out: MIC): 16 µg/mL (≈ 24.5 µM)
MIC (P. aeruginosa; ATCC21726, P. aeruginosa ATCC 21726): > 32 µg/mL
MIC (P. aeruginosa; ATCC29872, P. aeruginosa ATCC 29872): > 32 µg/mL
MIC (Staphylococcus aureus; ATCC11632, S. aureus ATCC 11632): 16 µg/mL (≈ 24.5 µM)
MIC (Staphylococcus aureus; ATCC33591, S. aureus ATCC 33591): 0.125 µg/mL (≈ 0.192 µM)
MIC (Staphylococcus aureus; ATCC33594, S. aureus ATCC 33594): 0.063 µg/mL (≈ 0.0966 µM)
MIC (Staphylococcus aureus; ATCC700260, S. aureus ATCC 700260): 4 µg/mL (≈ 6.14 µM)
MIC (Staphylococcus aureus; ATCC700699, S. aureus ATCC 700699): 32 µg/mL (≈ 49.1 µM)
MIC (E. faecalis; ATCC49757, E. faecalis ATCC 49757): 16 µg/mL (≈ 24.5 µM)
MIC (E. faecalis; ATCC700802, E. faecalis ATCC 700802): 16 µg/mL (≈ 24.5 µM)
MIC (K. pneumoniae; ATCC51503, K. pneumoniae ATCC 51503, read-out: MIC): 16 µg/mL (≈ 24.5 µM)
MIC (K. pneumoniae; ATCC700721, K. pneumoniae ATCC 700721, read-out: MIC): 2 µg/mL (≈ 3.07 µM)
MIC (E. aerogenes; ATCC35028, E. aerogenes ATCC 35028, read-out: MIC): 32 µg/mL (≈ 49.1 µM)

Reference: patent US20020115642A1, “Beta-lactam antibiotics” (priority 2000, published 2002)
